Results on 11 compounds are retold here after patent US5968912A, “Methods for immunosuppressing” (Immune Modulation, Inc., priority 1997, dated 1999).

Assay type in all cases: cell-based, human
The test system of assay [1] is mononuclear leukocytes (Two-way MLR). The assay is described as follows: Two-way mixed leukocyte reaction (MLR), 3H-thymidine incorporation. Conditions: for inhibition at 0.01 µM / inhibition at 0.1 µM / inhibition at 1 µM / inhibition at 10 µM / inhibition at 100 µM: Homo sapiens, Leukocyte. A general note: Incorporation of labelled thymidine or its analogues reports DNA synthesis.

For assay [2], the system named is Protein Kinase-C-Mediated T-cell Proliferation (PBMC). The assay is described as follows: PK-C-mediated T-cell proliferation (PMA + A23187). Conditions: PMA 1.25 ng/mL + A23187 0.25 μM; for Proliferation: 100 μM; for inhibition at 100 µM: Homo sapiens, T-cell. The method, then: Determination of the effect of HE-33 on PK-C-mediated signaling pathway
PBMC of a healthy volunteer were cultured in 96-well microtiter plates at 2×10^5 cells/well. […] Forskolin is an agent well known to increase intacellular cAMP levels by activating adenylate cyclase. Cultures were incubated for 3 days at 37° C. in a 5% CO2 incubator. Proliferative response was determined by incorporation of ^3 H-thymidine.. The results were expressed in CPM and % inhibition of proliferation (Table 7).

The next assay relates to IL-10. Put plainly: IL-10 production in PHA-stimulated PBMC cultures. Also on record: % Inhibition of IL-10 production: concentration or dose not given beside the values. The method, then: (§1) Production of autocrine growth factors (IL-2, IL-4, IL-10 and Interferon-gamma) in PHA-stimulated human PBMC cultures
(§2) Culture supernatants were collected at the times indicated and frozen at -20° C. At the end of 96 hr., all supernatants were assayed by enzyme immunoassay for the presence of the cytokines: interleukin-2, -4, -10 and interferon (IFN)-gamma. Results were expressed in pg/mL concentration of cytokine and % inhibition of cytokine production.

For another assay, the system named is IL-4. The assay is described as follows: IL-4 production in PHA-stimulated PBMC cultures. Also on record: % Inhibition of IL-4 production: concentration or dose not given beside the values. The protocol: as §1, §2
The test system of a further assay is Interferon-gamma. Put plainly: Interferon-gamma production in PHA-stimulated PBMC cultures. Also on record: % Inhibition of IFN-γ production: concentration or dose not given beside the values. The protocol:
as §1, §2

The next assay deals with IL-2. Put plainly: IL-2 production in PHA-stimulated PBMC cultures. More on the design: % Inhibition of IL-2 production: concentration or dose not given beside the values. The protocol:
as §1, §2

One may read the inhibition as the percentage by which the read-out fell short of the control. Turning to `Cc1ccc(S(=O)(=O)O[C@@H]2[C@@H]3OP(=O)(O)OC[C@H]3O[C@H]2n2cnc3c(N)ncnc32)cc1` [Compound 1-5, 2'-O-Tosyl-c-AMP], in assay [1], the inhibition at 0.01 µM amounted to 0%, at 0.1 µM the inhibition was 16%, at 1 µM the inhibition was 25% and testing at 10 µM gave an inhibition of 24%. Moreover, the inhibition at 100 µM in assay [1] is 58%.
The like results for `CCCN(CCC)c1ncnc2c1ncn2[C@@H]1O[C@@H]2COP(=O)(O)O[C@H]2[C@H]1OS(=O)(=O)c1ccc(C)cc1` [Compound 1-15, N^6,N^6-di-n-Propyl-2'-O-tosyl-c-AMP] were, in that order, 0%, 6%, 9%, 25% and 99.4%.
On the same counts, the results for `CCCNc1ncnc2c1ncn2[C@@H]1O[C@@H]2COP(=O)(O)O[C@H]2[C@H]1O` [Compound 1-16] are 0%, 2.2%, 12.5%, 90.7% and 99.8%.
In assay [1], `CCCCN(CCCC)c1ncnc2c1ncn2[C@@H]1O[C@@H]2COP(=O)(O)O[C@H]2[C@H]1OS(=O)(=O)c1ccc(C)cc1` [Compound 1-22] returned an inhibition at 0.01 µM of 0%, an inhibition at 0.1 µM of 7%, an inhibition at 1 µM of 4% and an inhibition at 10 µM of 0%. The compound also showed an inhibition at 100 µM in assay [1] of 99%.
On to `CCCCN(CCCC)c1ncnc2c1ncn2[C@@H]1O[C@@H]2COP(=O)(O)O[C@H]2[C@H]1O` [Compound 1-24], for which, in assay [1], at 0.01 µM the inhibition was 0%, 0.1 µM produced 27% inhibition, the inhibition at 1 µM was 78% and the inhibition at 10 µM is 97%. The same compound displayed an inhibition at 100 µM in assay [1] of 100%. Moreover, the “Inhibitory capacity on two-way MLR, in words” value in assay [1] (two-way MLR) was “significant inhibitory capacity”. In addition, in assay [2], the Proliferation was found to be 16 CPM and the inhibition at 100 µM is 98%.
In assay [1], `CCCN(CCC)c1ncnc2c1nc(SCc1ccccc1)n2[C@@H]1O[C@@H]2COP(=O)(O)O[C@H]2[C@H]1O` [Compound 1-42] gave an inhibition at 1 µM of 0%, an inhibition at 10 µM of 31% and an inhibition at 100 µM of 89%.
The like results for `CCCN(CCC)c1ncnc2c1ncn2[C@@H]1O[C@H](CO)[C@@H](O)[C@H]1O` [Compound 1-46] were, in that order, 12%, 83% and 98%.
The like results for `CCN(CC)c1ncnc2c1ncn2[C@@H]1O[C@H](CO)[C@@H](O)[C@H]1O` [Compound 1-50] were, in that order, 13%, 45% and 88%.
As to `C=CC[C@@H]1/C=C(\C)C[C@H](C)C[C@H](OC)[C@H]2O[C@@](O)(C(=O)C(=O)N3CCCC[C@H]3C(=O)O[C@H](/C(C)=C/[C@@H]3CC[C@@H](O)[C@H](OC)C3)[C@H](C)[C@@H](O)CC1=O)[C@H](C)C[C@@H]2OC` [Fk506, reference compound], the “% Inhibition of IL-10 production” value came out at 69% with IL-10 (24 hours), 77% in the assay on IL-10 (48 hours), 61% with IL-10 (72 hours) and 76% with IL-10 (96 hours). Also, the IL-10 production in the assay on IL-10 (24 hours) came to 173 pg/mL; in the assay on IL-10 (48 hours), 235 pg/mL; with IL-10 (72 hours), 228 pg/mL; in the assay on IL-10 (96 hours), 200 pg/mL. Besides, the “% Inhibition of IL-4 production” value in the assay on IL-4 (24 hours) came out at 98%; in the assay on IL-4 (48 hours), 99%; in the assay with IL-4 (72 hours) it was 99%; in the assay with IL-4 (96 hours) it was 93%. Moreover, the IL-4 production with IL-4 (24 hours) came out at 18 pg/mL; in the assay with IL-4 (48 hours), 17 pg/mL; in the assay with IL-4 (72 hours) it was 10 pg/mL; in the assay with IL-4 (96 hours), 10 pg/mL. The “% Inhibition of IFN-γ production” value in the assay on Interferon-gamma (24 hours) was 100%; in the assay with Interferon-gamma (48 hours), 98%; with Interferon-gamma (72 hours), 92%; in the assay on Interferon-gamma (96 hours), 96%. Further, the IFN-γ production was 0 pg/mL in the assay on Interferon-gamma (24 hours), 155 pg/mL in the assay with Interferon-gamma (48 hours), 232 pg/mL in the assay on Interferon-gamma (72 hours) and 225 pg/mL with Interferon-gamma (96 hours). The “% Inhibition of IL-2 production” value with IL-2 (24 hours) was 100%; in the assay on IL-2 (48 hours), 97%; in the assay with IL-2 (72 hours) it was 91%; in the assay with IL-2 (96 hours) it was 0%. Also, the IL-2 production in the assay with IL-2 (24 hours) is 0.7 pg/mL; with IL-2 (48 hours), 16 pg/mL; in the assay with IL-2 (72 hours), 16 pg/mL; in the assay with IL-2 (96 hours) it was 23 pg/mL.
As for `C=C[C@@]1(C)CC(=O)[C@]2(O)[C@@]3(C)[C@@H](O)CCC(C)(C)[C@@H]3[C@H](O)[C@H](OC(C)=O)[C@@]2(C)O1` [Forskolin, reference compound], in assay [1], the inhibition at 0.01 µM came out at 20%, 0.1 µM produced 28% inhibition, the inhibition at 1 µM was determined as 31% and the inhibition at 10 µM was 55%. Besides, in assay [1], the inhibition at 100 µM came out at 60%. Moreover, in assay [2], the Proliferation was found to be 476 CPM and the inhibition at 100 µM turned out to be 55%.
In the case of `CCCC(=O)Nc1ncnc2c1ncn2[C@@H]1O[C@@H]2COP(=O)(O)O[C@H]2[C@H]1OC(=O)CCC` [dbcAMP, reference compound], in assay [2], the Proliferation was 645 CPM and the inhibition at 100 µM is 38%.
